Test results from article PMC8386742, “Discovery of N-aryl sulphonamide-quinazoline derivatives as anti-gastric cancer agents in vitro and in vivo via activating the Hippo signalling pathway” (Journal of Enzyme Inhibition and Medicinal Chemistry, 2021).

How the values were obtained:
MGC-803 cells = assay: MTT antiproliferative assay, MGC-803 cells; type: cell-based, human; conditions: exposure for 48 h
Experimental: (§1) The in vitro antiproliferative activities of new target compounds 6a–6g, 9a–9i, 10a–10j, 11a–11j, and 14a–14d were evaluated against four human cancer cell lines (MGC-803, PC-3, HCT-116, and MCF-7) using MTT assay and 5-FU as a positive drug. The following Tables 1–[4] depicted the results of in vitro antiproliferative activity.
(§2) Cell lines used were cultured in humidified incubator in a humidified atmosphere of 5% CO2 and 95% air. The RPMI-1640 medium was supplemented with 10% foetal bovine serum, penicillin (100 U/ml) and streptomycin (0.1 mg/ml).
(§3) Cell lines were seeded into 96-well plates and incubated for 24 h. Then cells were treated with different concentrations of compounds. And after another 48 h, MTT reagent (20 μL per well) was added to each well and then incubated at 37 °C for 4 h. After the suspension was discarded, formazan was then dissolved with DMSO. Absorbencies of formazan solution were measured at 490 nm. The IC50 values of tested compounds were calculated by SPSS version 17.0.

[1] = In vivo toxicity in MGC-803 bearing mice (body weight, blood biochemistry, H&E); parameters: species or system nude mice
Experimental: The bodyweight of mice was recorded during the treatment every 3 days. […] Blood samples and organs were collected after mice were executed.
A human gastric cancer subcutaneous transplantation tumour model was established with MGC-803 cells. After the tumour volume reaches 100 mm3 the MGC-803 bearing mice were randomised into 3 groups and intraperitoneal injection with normal saline or drugs continuously for 21 days. Tumour volume was measured every 3 days (Length × Width2/2). Mice were executed after treatment. 500 μL blood samples was collected each mouse, samples were then centrifuged at 2000 g for 10 min for biochemistry analysis. Tumour and organs tissues were harvested for H&E staining or immunochemistry detection. The experiments in the study were performed comply with the protocols approved by the Institutional Animal Care and Use Committee, Zhengzhou University.

[2] = tested on: MGC-803 and SGC-7901 cells; assay: Colony formation assay in gastric cancer cells; type: cell-based; conditions: 150 nM, 7 days
Source text: (§4) Because of the potent inhibitory activity on cell viability of compound 9i, we next explored the effects of compound 9i on cell proliferation in MGC-803 and SGC-7901 cells.
(§5) Figure 6. Gastric cancer cell proliferation inhibition inhibited by 9i. Density ratios relative to β-Actin were shown on the top of each Western blotting band. (A,B) Cell growth curves of in MGC-803 and SGC-7901 cells after the treatment with indicated concentrations of 9i for different hours; (C,D). Gastric cancer cell colony formation, cells were treated for 7 days; (E) Cell cycle distribution of MGC-803 and SGC-7901 after the treatment with indicated concentrations of 9i for 24 h; (F,G) Cell cycle related proteins in gastric cancer cells after the treatment with indicated concentrations of 9i for 24 h.
In this work, some other assays including colony formation assay, cell apoptosis assay and immunostaining assay were referred to our previous work[35]^,[36].

GES-1 cells = assay: MTT antiproliferative assay, GES-1 normal gastric epithelial cells; type: cell-based
Source text: (§6) Furthermore, MGC-803 cells were more sensitive to the compounds than HCT-116, PC-3 cells MCF-7 cells. Moreover, we chose two other common gastric cancer cell lines (HGC-27 and SGC-7901) and another two normal cells GES-1 and HUEVC cells to examine for the inhibitory activity of compound 9i.
Since compound 9i presented high potency against cancer cells and MGC-803 cells was more sensitive to compound 9i, compound 9i, MGC-803, another two gastric cancer cells SGC-7901, HGC-27, and GES-1(normal gastric epithelial cells) were used for further detection. As shown in Figures 3(A,B), compound 9i inhibited three gastric cancer cell lines in the dose and time-dependent manners. The inhibition ratios of compound 9i against three gastric cancer cells were all above 50% after 48 h in the high dosage group. Moreover, MGC-803 and SGC-7901 cell lines were more sensitive and compound 9i inhibited over 65% cell viability with high dose treatment for 48 h.
as §2, §3

HUEVC cells = assay: MTT antiproliferative assay, HUEVC normal cells; type: cell-based; conditions: exposure for 48 h, non-cancer cell line
Experimental: as §6, §2, §3

HGC-27 cells = assay: MTT antiproliferative assay, HGC-27 gastric cancer cells; type: cell-based
Experimental: as §6, §2, §3

tubulin = assay: Tubulin polymerization, extracellular; type: biochemical; conditions: 3 μmol/L
Source text: In this work, compound 9i was design and synthesized by SAR study of our reported tertiary amide derivatives compound 1 and compound 2. Therefore, we tested the influence of compound 9i on tubulin polymerization and AKT/mTOR and ERK […]
influence on tubulin polymerization and P38, ERK, AKT, mTOR and Wnt pathways . […]
pathway. Therefore, we here reported N-sulfonamide-quinazoline derivatives as novel anti-gastric cancer agents via activating the Hippo signaling pathway in vitro and in […]
Supporting Figure S1. A. Activity of compound 9i on tubulin polymerization . Tubulin polymerization extracellular, concentrations of Paclitaxel, Colchicine and 9i were 3 μmol/L; Activity of compound 9i on P38, ERK, AKT, mTOR and Wnt pathways, cells were incubated with […]
(1 picture or pasted object on this page, not shown here)

[3] = tested on: MGC-803 and SGC-7901 cells; assay: Cell cycle distribution in gastric cancer cells; type: cell-based; conditions: 24 h
Source text: as §4, §5

SGC-7901 cells = assay: MTT antiproliferative assay, SGC-7901 gastric cancer cells; type: cell-based; conditions: Homo sapiens, SGC-7901, exposure for 48 h
Experimental: as §6, §2, §3

PC-3 cells = assay: MTT antiproliferative assay, PC-3 cells; type: cell-based, human; conditions: Homo sapiens, PC-3, exposure for 48 h
Experimental: as §1, §2, §3

## COc1ccc(S(=O)(=O)N(Cc2nc(C)c3ccccc3n2)c2cc(OC)c(OC)c(OC)c2)cc1 [Compound 9i, 4-Methoxy-N-((4-methylquinazolin-2-yl)methyl)-N-(3,4,5-trimethoxyphenyl) benzene-sulfonamide]
MGC-803 cells; Homo sapiens, MGC-803, 48 h
  IC50: 360 ± 20 nM
MGC-803 cells
  IC50: 363 nM
[1]; blood samples after execution
  blood biochemical indexes (ALT, AST, T-BIL, UA, CRE, BUN) versus vehicle control group: no significant difference
[1]; body weight, blood biochemistry, H&E staining of organs
  toxicity in vivo: did not show obvious toxicity in vivo
[1]; recorded every 3 days during 21 days treatment
  bodyweight of mice versus vehicle control group: did not show a significant difference
[2]
  colony formation: significantly decreased
GES-1 cells; Homo sapiens, GES1, MTT, exposure for 48 h, non-cancer cell line
  IC50: 894 nM
GES-1 cells; normal gastric epithelial cells
  cytotoxicity towards GES-1 cells: low cytotoxicity
HUEVC cells
  IC50: 26200 nM
HGC-27 cells; Homo sapiens, HGC-27, MTT, exposure for 48 h
  IC50: 458 nM
HGC-27 cells; high dosage group, 48 h
  inhibition ratio against HGC-27 cells: above 50%
tubulin
  influence on tubulin polymerization: no strong influence
[3]
  cell cycle arrest: remarkable and dose-dependent G2/M arrest
SGC-7901 cells
  IC50: 376 nM
PC-3 cells
  IC50: 1040 ± 130 nM
